# Test results taken from the OPERA property sets (Mansouri et al. 2018).
row,Compound,logP
1,Cc1cc2c(OCC(O)CNC(C)C)cccc2[nH]1 (configuration not stated),2.3
2,CC(C)NC[C@H](O)COc1ccc(OCCOCCc2ccc(F)cc2)cc1,3.7
3,CC(C)NCC(O)COc1ccc(CCOCC2CC2)cc1 (configuration not stated),2.81
4,CC(C)NCC(O)COc1ccccc1C1CC1 (configuration not stated),3.07
5,CNC(=O)COc1ccccc1OCC(O)CNC(C)(C)C (configuration not stated),1.36
6,COc1ccccc1OCC(O)CNC(C)C (configuration not stated),1.69
7,CC(=O)Nc1ccc(OCC(O)CNCC(O)COc2ccccc2)cc1 (configuration not stated),1.39

# Further lines, results first:
row,logP,Compound
1,0.94,CC(=O)Nc1ccc(OCC(O)CNC(C)C)c(C(C)=O)c1 (configuration not stated)
2,2.32,C#CCOc1ccccc1OCC(O)CNC(C)(C)C (configuration not stated)
3,3.67,Cc1ccccc1OCC(O)CNCC(O)COc1ccccc1C (configuration not stated)
4,2.02,CC(=O)c1cc2cccc(OCC(O)CNC(C)C)c2o1 (configuration not stated)
5,1.87,CC(C)NCC(O)COc1ccc(COCCOC(C)C)cc1 (configuration not stated)
